Source: ChEMBL document CHEMBL4706699, “Novel (R)-6,6a,7,8,9,10-hexahydro-5H-pyrazino[1,2-a][1,n]naphthyridines as potent and selective agonists of the 5-HT receptor” (Bioorg Med Chem Lett, 2021)

Experiments:
[1] = target: T1, 5-hydroxytryptamine receptor 2B (Homo sapiens, UniProt P41595); assay: Agonist activity at 5-HT2BR (unknown origin) transfected in human HEK293 cells by IP3 accumulation assay; assay type: cell-based
5-HT2A receptor = 5-HT2A receptor (Homo sapiens, UniProt P28223); assay: Agonist activity at 5-HT2AR (unknown origin) transfected in human HEK293 cells at 10 uM by IP3 accumulation assay relative to control; assay type: cell-based; conditions: HEK293 cells transfected with 5-HT2AR
5-HT2B receptor = 5-HT2B receptor (Homo sapiens, UniProt P41595); assay: Agonist activity at 5-HT2BR (unknown origin) transfected in human HEK293 cells at 10 uM by IP3 accumulation assay relative to control; assay type: cell-based; conditions: HEK293 cells transfected with 5-HT2BR
[2] = target: T2, 5-hydroxytryptamine receptor 2C (Homo sapiens, UniProt P28335); assay: Agonist activity at 5-HT2CR (unknown origin) transfected in human HEK293 cells by IP3 accumulation assay; assay type: functional, cell-based
T2 sequence (P28335 whole entry): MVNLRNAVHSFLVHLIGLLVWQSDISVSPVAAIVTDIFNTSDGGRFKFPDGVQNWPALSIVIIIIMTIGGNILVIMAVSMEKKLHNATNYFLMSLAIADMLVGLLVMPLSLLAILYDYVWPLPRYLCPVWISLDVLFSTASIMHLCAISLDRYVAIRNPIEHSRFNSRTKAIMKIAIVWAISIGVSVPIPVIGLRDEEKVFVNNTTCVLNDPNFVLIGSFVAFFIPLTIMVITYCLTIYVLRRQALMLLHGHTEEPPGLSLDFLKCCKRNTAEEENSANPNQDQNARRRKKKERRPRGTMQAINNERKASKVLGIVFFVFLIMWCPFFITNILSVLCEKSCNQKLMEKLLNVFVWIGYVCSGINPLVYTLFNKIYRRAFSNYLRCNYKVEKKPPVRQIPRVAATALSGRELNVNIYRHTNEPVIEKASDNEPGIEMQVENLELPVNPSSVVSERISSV

[3] = target: T3, 5-hydroxytryptamine receptor 2A (Homo sapiens, UniProt P28223); assay: Agonist activity at 5-HT2AR (unknown origin) transfected in human HEK293 cells by IP3 accumulation assay; assay type: cell-based
[4] = target: T4, 5-hydroxytryptamine receptor 2C (Homo sapiens) (UniProt P28335); assay: Agonist activity at 5-HT2CR (unknown origin) transfected in human HEK293 cells at 10 uM by IP3 accumulation assay relative to control; assay type: functional, cell-based; conditions: filed as agonist
T4 sequence (whole entry): T2 sequence (P28335 whole entry)

[5] = Metabolic stability in human liver microsomes assessed as parent compound remaining at 1 uM incubated for 45 mins; assay type: ADME, Microsome; conditions: read-out: Stabilty
[6] = target: T2, 5-hydroxytryptamine receptor 2C; assay: Displacement of [125I]-DOI from recombinant human 5HT2CR transfected in human HEK293 cells incubated for 45 mins by radioligand binding assay; assay type: cell-based
[7] = target: T1, 5-hydroxytryptamine receptor 2B; assay: Displacement of [3H]-[…] from recombinant human 5HT2BR transfected in human HEK293 cells incubated for 45 mins by radioligand binding assay; assay type: cell-based
[8] = Metabolic stability in rat liver microsomes assessed as parent compound remaining at 1 uM incubated for 45 mins; assay type: ADME, Microsome; conditions: read-out: Stabilty
[9] = Ratio of unbound drug level in po dosed Sprague-Dawley rat brain to plasma measured after 2 hrs; assay type: ADME, organism-based; conditions: read-out: K(p,uu,brain)
[10] = Oral bioavailability in Sprague-Dawley rat; assay type: ADME, organism-based; conditions: in vivo
[11] = Half life in po dosed Sprague-Dawley rat; assay type: ADME, organism-based; conditions: in vivo
Rattus norvegicus = assay: (§1) In vivo agonist activity at 5HT2CR in po dosed Sprague-Dawley rat assessed as reduction in food intake measured at 1 hr; assay type: functional
[12] = as §1; assay type: functional
[13] = target: T3, 5-hydroxytryptamine receptor 2A; assay: Displacement of [3H]-DOI from recombinant human 5HT2AR transfected in human HEK293 cells incubated for 45 mins by radioligand binding assay; assay type: cell-based

Chain of 5-HT2B receptor (P41595 whole entry): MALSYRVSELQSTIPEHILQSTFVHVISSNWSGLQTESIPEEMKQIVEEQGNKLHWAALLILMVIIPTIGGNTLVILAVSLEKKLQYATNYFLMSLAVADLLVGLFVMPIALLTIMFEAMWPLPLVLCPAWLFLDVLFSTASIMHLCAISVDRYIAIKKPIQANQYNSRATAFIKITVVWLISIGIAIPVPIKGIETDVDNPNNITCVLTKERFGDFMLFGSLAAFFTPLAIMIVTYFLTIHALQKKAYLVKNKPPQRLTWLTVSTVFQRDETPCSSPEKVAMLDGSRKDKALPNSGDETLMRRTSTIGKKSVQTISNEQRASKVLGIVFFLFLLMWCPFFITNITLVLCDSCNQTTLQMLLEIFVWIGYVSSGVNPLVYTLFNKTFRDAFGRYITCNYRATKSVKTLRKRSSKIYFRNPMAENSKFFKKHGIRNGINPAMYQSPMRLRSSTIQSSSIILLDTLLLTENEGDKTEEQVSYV
T1 sequence (P41595 whole entry): as above
T3 sequence (P28223 whole entry): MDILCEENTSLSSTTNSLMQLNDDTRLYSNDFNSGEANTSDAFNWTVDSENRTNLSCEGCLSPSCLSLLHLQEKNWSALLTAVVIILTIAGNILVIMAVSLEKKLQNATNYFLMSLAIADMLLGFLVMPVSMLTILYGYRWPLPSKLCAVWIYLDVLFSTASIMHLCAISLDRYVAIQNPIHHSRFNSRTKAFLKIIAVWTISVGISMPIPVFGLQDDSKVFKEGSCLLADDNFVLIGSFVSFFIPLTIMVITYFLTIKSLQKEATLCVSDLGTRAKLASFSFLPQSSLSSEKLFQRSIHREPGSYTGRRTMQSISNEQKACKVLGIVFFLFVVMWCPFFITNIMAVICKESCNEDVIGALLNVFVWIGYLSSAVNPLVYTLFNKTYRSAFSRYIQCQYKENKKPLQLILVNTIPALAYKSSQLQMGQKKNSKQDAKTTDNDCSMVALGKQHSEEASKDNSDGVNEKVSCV
Chain of 5-HT2A receptor (P28223 whole entry): as above

For `Clc1ccnc2c1CC[C@@H]1CNCCN21`, the EC50 [1] was 50.1 nM, the Emax at 10 µM (5-HT2A receptor) was 90% and the Emax at 10 µM (5-HT2B receptor) was 62%. The EC50 [2] was 5.01 nM, the EC50 [3] was 1260 nM and the Emax [4] was 99%.
With `c1cnc2c(c1)CC[C@@H]1CNCCN21` the EC50 [1] was 63.1 nM, the Emax at 10 µM (5-HT2B receptor) was 19% and the EC50 [2] was 100 nM. For the same compound, the EC50 [3] was greater than 10000 nM and the Emax [4] was 92%.
For `CC(C)Cc1ccnc2c1CC[C@@H]1CNCCN21`, the EC50 [1] was 316 nM, the remaining at 0.75 h, 1 µM [5] was 14% and the Ki [6] was 0.631 nM. The Ki [7] was 31.6 nM, the Emax at 10 µM (5-HT2B receptor) was 22% and the EC50 [2] was 0.398 nM. For the same compound, the Emax [4] was 102% and the remaining at 0.75 h, 1 µM [8] was 24%.
Work on `FC(F)(F)CCc1ccnc2c1CC[C@@H]1CNCCN21` yielded a Kp uu at 2 h [9] of 1.3, a bioavailability [10] of 54% and a half-life [11] of 2.9 h. It also gave a remaining at 0.75 h, 1 µM [5] of 100%, an Emax at 10 µM (5-HT2A receptor) of 134% and an Emax at 10 µM (5-HT2B receptor) of 31%. The Emax [4] was 97%, the Activity (Rattus norvegicus) was “Dose-dependent effect” and the ED50 [12] was 0.7 mg/kg. The remaining at 0.75 h, 1 µM [8] was 80%.
For `c1ccc(Cc2ccnc3c2CC[C@@H]2CNCCN32)cc1`, the Emax at 10 µM (5-HT2A receptor) was 114%, the Ki [6] was 0.251 nM and the Emax at 10 µM (5-HT2B receptor) was 25%. It also gave a Ki [13] of 1.26 nM, an EC50 [2] of 0.126 nM and an EC50 [3] of 50.1 nM. The Emax [4] was 107%.
Work on `Cc1ccnc2c1CC[C@@H]1CNCCN21` yielded an Emax at 10 µM (5-HT2B receptor) of 52% and an Emax [4] of 102%.
`CCCc1cncc2c1CC[C@@H]1CNCCN21` showed a remaining at 0.75 h, 1 µM [5] of 5%, a Ki [13] of 39.8 nM and an Emax [4] of 106%. It also gave a remaining at 0.75 h, 1 µM [8] of 14%.
Work on `c1cc2c(cn1)N1CCNC[C@H]1CC2` yielded an EC50 [1] of 794 nM, an Emax at 10 µM (5-HT2B receptor) of 28% and an EC50 [2] of 316 nM. The EC50 [3] was greater than 10000 nM and the Emax [4] was 98%.
`CCCc1ccnc2c1CC[C@@H]1CNCCN21` showed a remaining at 0.75 h, 1 µM [5] of 29%, a Ki [6] of 0.158 nM and an Emax at 10 µM (5-HT2B receptor) of 54%. It also gave a Ki [13] of 6.31 nM, an EC50 [2] of 0.0631 nM and an Emax [4] of 99%. For the same compound, the remaining at 0.75 h, 1 µM [8] was 27%.
Work on `c1cc2c(c(CC3CCC3)n1)CC[C@@H]1CNCCN21` yielded an EC50 [1] greater than 10000 nM, an EC50 [2] greater than 1000 nM and an EC50 [3] greater than 10000 nM.
Work on `COCc1ccnc2c1CC[C@@H]1CNCCN21` yielded an Emax at 10 µM (5-HT2B receptor) of 38% and an Emax [4] of 109%.
Work on `c1cc(C2CC2)c2c(n1)N1CCNC[C@H]1CC2` yielded an EC50 [1] of 15.8 nM, an Emax at 10 µM (5-HT2A receptor) of 117% and an Emax at 10 µM (5-HT2B receptor) of 34%. It also gave an EC50 [2] of 6.31 nM, an EC50 [3] of 398 nM and an Emax [4] of 99%.
`CCCc1cccc2c1CC[C@@H]1CNCCN21` showed an EC50 [1] of 100 nM, a remaining at 0.75 h, 1 µM [5] of 13% and an Emax at 10 µM (5-HT2A receptor) of 74%. For the same compound, the Ki [6] was 0.316 nM, the Ki [7] was 12.6 nM and the Emax at 10 µM (5-HT2B receptor) was 82%. For the same compound, the Ki [13] was 5.01 nM, the EC50 [2] was 0.2 nM and the EC50 [3] was 158 nM. For the same compound, the Emax [4] was 107% and the remaining at 0.75 h, 1 µM [8] was 38%.
`c1cc2c(cn1)CC[C@@H]1CNCCN21` showed an EC50 [1] greater than 10000 nM, an EC50 [2] greater than 10000 nM and an EC50 [3] greater than 10000 nM.
Compound `c1ccc(Cc2cncc3c2CC[C@@H]2CNCCN32)cc1` has an EC50 [1] greater than 10000 nM, a Ki [6] of 0.501 nM and a Ki [7] of 251 nM. For the same compound, the EC50 [2] was 0.631 nM and the Emax [4] was 110%.
With `FC(F)(F)CCc1cccc2c1CC[C@@H]1CNCCN21` the EC50 [1] was 3160 nM, the remaining at 0.75 h, 1 µM [5] was 81% and the Emax at 10 µM (5-HT2A receptor) was 114%. The Ki [6] was 2 nM, the Ki [7] was 100 nM and the Emax at 10 µM (5-HT2B receptor) was 48%. It also gave a Ki [13] of 20 nM, an EC50 [2] of 3.16 nM and an EC50 [3] of 1000 nM. It also gave an Emax [4] of 95% and a remaining at 0.75 h, 1 µM [8] of 23%.
With `c1cc(CC2CCC2)c2c(n1)N1CCNC[C@H]1CC2` the remaining at 0.75 h, 1 µM [5] was 78%, the Emax at 10 µM (5-HT2B receptor) was 17% and the Emax [4] was 108%. For the same compound, the remaining at 0.75 h, 1 µM [8] was 67%.
